These are literature values, as cited in patent publication US20060229344A1, “Method of treating amyotrophic lateral sclerosis” (priority 2005, published 2006).

The structures appear in SMILES notation.

The conditions of series [1]: in vivo.
The conditions of series [2]: in vivo. This is another data set of the same source.

As for `Cc1cc(CCCOc2c(C)cc(-c3noc(C(F)(F)F)n3)cc2C)on1` [VP 63843, 3-[3,5-dimethyl-4-[[3-(3-methyl-5-isoxazolyl)propyl]oxy]phenyl]-5-(trifluoromethyl)-1,2,4-oxadiazole], the “absorption after oral administration” value is given as “well absorbed”. In addition, in series [1], the side-effects entry was “few side-effects”, the tolerability result is listed as “well tolerated” and the toxicity result was “little toxicity”. Also, the “crossing into the central nervous system and gray matter” value in series [2] was “crosses readily into the central nervous system and into gray matter”.
